Publication PMC8279981, “A first-in-human, phase 1 study of the NEDD8 activating enzyme E1 inhibitor TAS4464 in patients with advanced solid tumors” (Investigational New Drugs, 2021)

System: patients with advanced or metastatic solid tumors
Experiment: Phase 1 study: treatment-related adverse events (NCI CTCAE v4.03)
Type: in vivo, human
Settings: for Anemia (treatment-related adverse event) / Blood bilirubin increased (treatment-related adverse event) / Decreased appetite (treatment-related adverse event) / Diarrhea (treatment-related adverse event) / Fatigue (treatment-related adverse event) / GGT increased (treatment-related adverse event) / Hypoalbuminemia (treatment-related adverse event) / Malaise (treatment-related adverse event) / Nausea (treatment-related adverse event) / Neuropathy peripheral (treatment-related adverse event) / Pyrexia (treatment-related adverse event) / Rash (treatment-related adverse event) / Vomiting (treatment-related adverse event) / WBC decreased (treatment-related adverse event) / ALP increased (treatment-related adverse event) / ALT increased (treatment-related adverse event) / AST increased (treatment-related adverse event): Grade ≥ 3
Protocol: The highest non-severely toxic dose was derived from a dog toxicology study and was used to calculate a clinical starting dose of 10 mg/m^2, which corresponds to one-sixth of the human-equivalent dose. The maximum tolerated dose (MTD) of TAS4464 was investigated using an accelerated titration design. Initially, the starting TAS4464 dose was 10 mg/m^2 and was followed by an initial accelerated stage (i.e., weekly dosing phase) with 100% dose-step increments (level 1: 10 mg/m^2, level 2: 20 mg/m^2, level 3: 40 mg/m^2, and level 4: 56 mg/m^2). The 100% dose-step increments continued until the occurrence of a grade ≥ 2 drug-related toxicity within Cycle 1; dose-limiting toxicity (DLT) within Cycle 1; the next dose level reaching 60 mg/m^2; or any safety concerns. Thereafter, 40% increments were employed in the standard stage.
In the standard stage, three to six patients were to be enrolled, and the dose was escalated in 40% increments if none of the first three patients experienced a DLT. If one patient experienced a DLT, three additional patients were to be enrolled at the same dose level. If two of three or two of six patients experienced a DLT, the dose escalation was to be ceased. […] Additionally, DLT criteria regarding abnormal liver function and discontinuation criteria for study drug administration were added. The TAS4464 dose level for Day 1 of Cycle 1 was then set to 40 mg/m^2 (level 3).
Therefore, TAS4464 was administered every 7 days by 1-h intravenous infusion (± 10 min) at the dose assigned to each level. Study treatment was repeated every 28 days. The dosing regimens of each cohort are summarized in Supplementary Fig. 1.
Secondary objectives included assessment of AEs, treatment-related AEs, objective response rate (ORR), disease control rate (DCR), progression-free survival (PFS), and PK, pharmacodynamic, and pharmacogenomic (PGx) parameters with TAS4464 administration. The National Cancer Institute Common Terminology Criteria for Adverse Events (NCI CTCAE) v4.03 [17] was used to assess the severity of AEs. […] RECIST v1.1 [16] was used to determine clinical response, and all computed tomography images were assessed by the physician at the study site after completion of the imaging procedure. The ORR was defined as the percentage of patients with the best overall response of complete response (CR) or partial response (PR). The DCR was the percentage of patients with a best overall response of CR, PR, stable disease (SD), or non-CR/non-progressive disease (PD). PFS was defined as the time from the date of enrollment until the date of investigator-assessed radiological disease progression or death due to any cause, whichever occurred first.

[1] = weekly dosing Level 1 (10 mg/m^2), n = 1
[2] = weekly dosing Level 2 (20 mg/m^2), n = 1
[3] = weekly dosing Level 3 (40 mg/m^2), n = 3
[4] = weekly dosing Level 4 (56 mg/m^2), n = 5
[5] = weekly dosing with lead-in Level 3 (20 → 40 mg/m^2), n = 3
[6] = weekly dosing with lead-in Level 4 (20 → 56 mg/m^2), n = 3

CCOc1cccc(F)c1C#Cc1cn([C@@H]2O[C@H](CNS(N)(=O)=O)[C@@H](O)[C@H]2O)c2ncnc(N)c12 [TAS4464]
Anemia (treatment-related adverse event) (Total, N = 16): 0 n (%) | Blood bilirubin increased (treatment-related adverse event) (Total, N = 16): 0 n (%) | Decreased appetite (treatment-related adverse event) (Total, N = 16): 0 n (%) | Diarrhea (treatment-related adverse event) (Total, N = 16): 0 n (%) | Fatigue (treatment-related adverse event) (Total, N = 16): 0 n (%) | GGT increased (treatment-related adverse event) (Total, N = 16): 3 (18.8) n (%) | Hypoalbuminemia (treatment-related adverse event) (Total, N = 16): 0 n (%) | Malaise (treatment-related adverse event) (Total, N = 16): 0 n (%) | Nausea (treatment-related adverse event) (Total, N = 16): 0 n (%) | Neuropathy peripheral (treatment-related adverse event) (Total, N = 16): 0 n (%) | Pyrexia (treatment-related adverse event) (Total, N = 16): 0 n (%) | Rash (treatment-related adverse event) (Total, N = 16): 0 n (%) | Vomiting (treatment-related adverse event) (Total, N = 16): 0 n (%) | WBC decreased (treatment-related adverse event) (Total, N = 16): 1 (6.3) n (%) | ALP increased (treatment-related adverse event) [1]: 0 n (%) | ALT increased (treatment-related adverse event) [1]: 0 n (%) | AST increased (treatment-related adverse event) [1]: 0 n (%) | Anemia (treatment-related adverse event) [1]: 0 n (%) | Blood bilirubin increased (treatment-related adverse event) [1]: 0 n (%) | Decreased appetite (treatment-related adverse event) [1]: 0 n (%) | Diarrhea (treatment-related adverse event) [1]: 0 n (%) | Fatigue (treatment-related adverse event) [1]: 0 n (%) | GGT increased (treatment-related adverse event) [1]: 0 n (%) | Hypoalbuminemia (treatment-related adverse event) [1]: 0 n (%) | Malaise (treatment-related adverse event) [1]: 0 n (%) | Nausea (treatment-related adverse event) [1]: 0 n (%) | Neuropathy peripheral (treatment-related adverse event) [1]: 0 n (%) | Pyrexia (treatment-related adverse event) [1]: 0 n (%) | Rash (treatment-related adverse event) [1]: 0 n (%) | Vomiting (treatment-related adverse event) [1]: 0 n (%) | WBC decreased (treatment-related adverse event) [1]: 0 n (%) | ALP increased (treatment-related adverse event) [2]: 0 n (%) | ALT increased (treatment-related adverse event) [2]: 0 n (%) | AST increased (treatment-related adverse event) [2]: 0 n (%) | Anemia (treatment-related adverse event) [2]: 0 n (%) | Blood bilirubin increased (treatment-related adverse event) [2]: 0 n (%) | Decreased appetite (treatment-related adverse event) [2]: 0 n (%) | Diarrhea (treatment-related adverse event) [2]: 0 n (%) | Fatigue (treatment-related adverse event) [2]: 0 n (%) | GGT increased (treatment-related adverse event) [2]: 0 n (%) | Hypoalbuminemia (treatment-related adverse event) [2]: 0 n (%) | Malaise (treatment-related adverse event) [2]: 0 n (%) | Nausea (treatment-related adverse event) [2]: 0 n (%) | Neuropathy peripheral (treatment-related adverse event) [2]: 0 n (%) | Pyrexia (treatment-related adverse event) [2]: 0 n (%) | Rash (treatment-related adverse event) [2]: 0 n (%) | Vomiting (treatment-related adverse event) [2]: 0 n (%) | WBC decreased (treatment-related adverse event) [2]: 0 n (%) | ALP increased (treatment-related adverse event) [3]: 0 n (%) | ALT increased (treatment-related adverse event) [3]: 1 (33.3) n (%) | AST increased (treatment-related adverse event) [3]: 1 (33.3) n (%) | Anemia (treatment-related adverse event) [3]: 0 n (%) | Blood bilirubin increased (treatment-related adverse event) [3]: 0 n (%) | Decreased appetite (treatment-related adverse event) [3]: 0 n (%) | Diarrhea (treatment-related adverse event) [3]: 0 n (%) | Fatigue (treatment-related adverse event) [3]: 0 n (%) | GGT increased (treatment-related adverse event) [3]: 0 n (%) | Hypoalbuminemia (treatment-related adverse event) [3]: 0 n (%) | Malaise (treatment-related adverse event) [3]: 0 n (%) | Nausea (treatment-related adverse event) [3]: 0 n (%) | Neuropathy peripheral (treatment-related adverse event) [3]: 0 n (%) | Pyrexia (treatment-related adverse event) [3]: 0 n (%) | Rash (treatment-related adverse event) [3]: 0 n (%) | Vomiting (treatment-related adverse event) [3]: 0 n (%) | WBC decreased (treatment-related adverse event) [3]: 0 n (%) | ALP increased (treatment-related adverse event) [4]: 1 (20.0) n (%) | ALT increased (treatment-related adverse event) [4]: 3 (60.0) n (%) | AST increased (treatment-related adverse event) [4]: 3 (60.0) n (%) | Anemia (treatment-related adverse event) [4]: 0 n (%) | Blood bilirubin increased (treatment-related adverse event) [4]: 0 n (%) | Decreased appetite (treatment-related adverse event) [4]: 0 n (%) | Diarrhea (treatment-related adverse event) [4]: 0 n (%) | Fatigue (treatment-related adverse event) [4]: 0 n (%) | GGT increased (treatment-related adverse event) [4]: 3 (60.0) n (%) | Hypoalbuminemia (treatment-related adverse event) [4]: 0 n (%) | Malaise (treatment-related adverse event) [4]: 0 n (%) | Nausea (treatment-related adverse event) [4]: 0 n (%) | Neuropathy peripheral (treatment-related adverse event) [4]: 0 n (%) | Pyrexia (treatment-related adverse event) [4]: 0 n (%) | Rash (treatment-related adverse event) [4]: 0 n (%) | Vomiting (treatment-related adverse event) [4]: 0 n (%) | WBC decreased (treatment-related adverse event) [4]: 1 (20.0) n (%) | ALP increased (treatment-related adverse event) [5]: 0 n (%) | ALT increased (treatment-related adverse event) [5]: 0 n (%) | AST increased (treatment-related adverse event) [5]: 0 n (%) | Anemia (treatment-related adverse event) [5]: 0 n (%) | Blood bilirubin increased (treatment-related adverse event) [5]: 0 n (%) | Decreased appetite (treatment-related adverse event) [5]: 0 n (%) | Diarrhea (treatment-related adverse event) [5]: 0 n (%) | Fatigue (treatment-related adverse event) [5]: 0 n (%) | GGT increased (treatment-related adverse event) [5]: 0 n (%) | Hypoalbuminemia (treatment-related adverse event) [5]: 0 n (%) | Malaise (treatment-related adverse event) [5]: 0 n (%) | Nausea (treatment-related adverse event) [5]: 0 n (%) | Neuropathy peripheral (treatment-related adverse event) [5]: 0 n (%) | Pyrexia (treatment-related adverse event) [5]: 0 n (%) | Rash (treatment-related adverse event) [5]: 0 n (%) | Vomiting (treatment-related adverse event) [5]: 0 n (%) | WBC decreased (treatment-related adverse event) [5]: 0 n (%) | ALP increased (treatment-related adverse event) [6]: 0 n (%) | ALT increased (treatment-related adverse event) [6]: 1 (33.3) n (%) | AST increased (treatment-related adverse event) [6]: 1 (33.3) n (%) | Anemia (treatment-related adverse event) [6]: 0 n (%) | Blood bilirubin increased (treatment-related adverse event) [6]: 0 n (%) | Decreased appetite (treatment-related adverse event) [6]: 0 n (%) | Diarrhea (treatment-related adverse event) [6]: 0 n (%) | Fatigue (treatment-related adverse event) [6]: 0 n (%) | GGT increased (treatment-related adverse event) [6]: 0 n (%) | Hypoalbuminemia (treatment-related adverse event) [6]: 0 n (%) | Malaise (treatment-related adverse event) [6]: 0 n (%) | Nausea (treatment-related adverse event) [6]: 0 n (%) | Neuropathy peripheral (treatment-related adverse event) [6]: 0 n (%) | Pyrexia (treatment-related adverse event) [6]: 0 n (%) | Rash (treatment-related adverse event) [6]: 0 n (%) | Vomiting (treatment-related adverse event) [6]: 0 n (%) | WBC decreased (treatment-related adverse event) [6]: 0 n (%) | ALT increased, Grade ≥ 3 treatment-related AE (all treated patients): 31.3% | ALT increased, all-grade treatment-related AE (all treated patients): 68.8% | AST increased, Grade ≥ 3 treatment-related AE (all treated patients): 31.3% | AST increased, all-grade treatment-related AE (all treated patients): 62.5% | alkaline phosphatase (ALP) increased, all-grade treatment-related AE (all treated patients): 43.8% | decreased appetite, all-grade treatment-related AE (all treated patients): 31.3% | nausea, all-grade treatment-related AE (all treated patients): 43.8% | drug-induced liver injury by Hy's law criteria (doses of up to 56 mg/m^2): No patients presented with drug-induced liver injury | treatment-related serious AE (weekly dosing level 4, resolved following TAS4464 dose reduction): ALT increased occurring in one patient | serious AEs (whole study): Four serious AEs were reported in three patients | deaths or fatal AEs (within the study period): No deaths or fatal AEs occurred
